The text below walks through data of patent publication US9624182B2, “Compounds as lysophosphatidic acid receptor antagonists” (Amira Pharmaceuticals, Inc., priority 2009, dated 2017).

Where only a bound is given, the exact number is not on record here.

One assay deals with nerve-injured mice. The note with it: pretreatment; cited from earlier work.
Assay [1] deals with human foetal lung fibroblasts. Particulars: BAL obtained from IPF patients; cited from earlier work.
The next assay concerns UUO mice. The note with it: UUO mice treated with antagonist; cited from earlier work.
The test system of assay [2] is mouse epithelial renal cell line, MCT. Particulars: MCT cells, co-treatment with LPA; cited from earlier work.
For assay [3], the system named is pancreatic cancer cell lines. Particulars: LPA and peritoneal fluid (ascites) from pancreatic cancer patients; cited from earlier work.
Assay [4] concerns highly peritoneal metastatic pancreatic cancer cell line. The note with it: cited from earlier work.
The subject of assay [5] is A2058 human melanoma cells. Kind of assay: LPA1 chemotaxis assay. Format: cell-based. Particulars: LPA 100 nM, read-out: IC50, inhibition of LPA-driven chemotaxis. The procedure:
Chemotaxis of the A2058 human melanoma cells was measured using the Neuroprobe ChemoTx® System plates (8 μm pore size, 5.7 mm diameter sites). The filter sites were coated with 0.001% fibronectin (Sigma) in 20 mM Hepes, pH 7.4 and allowed to dry. A2058 cells were serum-starved for 24 hours, then harvested with Cell Stripper and resuspended in DMEM containing 0.1% fatty-acid-free bovine serum albumin (BSA) to a concentration of 1×10^6/ml. Cells were mixed with an equal volume of test compound (2×) in DMEM containing 0.1% fatty-acid-free BSA and incubated at 37° C. for 15 minutes. LPA (100 nM in DMEM containing 0.1% fatty-acid-free BSA) or vehicle was added to each well of the lower chamber and 50 μl of the cell suspension/test compound mix was applied to the upper portion of the ChemoTx plate. Plates were incubated at 37° C. for three hours and then the cells removed from the upper portion by rinsing with PBS and scraping. The filter was dried then stained with HEMA 3 Staining System (Fisher Scientific). The absorbance of the filter was read at 590 nm and IC50s were determined using Symyx Assay Explorer.

For the next assay, the target named is T1, human LPA1 (Homo sapiens, UniProt Q92633).
T1 construct: the full-length cDNA for human LPA1 was obtained by PCR of the reverse transcription reaction; expressed in transfected cells
T1 sequence (Q92633 whole entry): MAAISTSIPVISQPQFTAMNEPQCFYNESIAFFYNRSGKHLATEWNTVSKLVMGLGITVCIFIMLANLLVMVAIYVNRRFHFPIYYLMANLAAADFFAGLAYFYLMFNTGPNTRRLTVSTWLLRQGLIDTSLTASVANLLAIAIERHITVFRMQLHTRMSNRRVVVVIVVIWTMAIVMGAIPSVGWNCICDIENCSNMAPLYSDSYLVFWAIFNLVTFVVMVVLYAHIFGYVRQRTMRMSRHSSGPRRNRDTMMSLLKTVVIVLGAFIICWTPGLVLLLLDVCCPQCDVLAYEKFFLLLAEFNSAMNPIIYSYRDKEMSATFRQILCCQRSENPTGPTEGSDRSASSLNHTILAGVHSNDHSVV
Nature of the assay: LPA1 calcium flux assay. Format: cell-based. Particulars: CHO cells expressing human LPA1, stimulated with 10 nM LPA; read-out: HLPA1 Ca Flux IC50. In a few lines: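 Antagonism measured as block of 10 nM LPA-evoked calcium rise in stable human LPA1-CHO cells. After overnight serum-free culture and 1 h dye loading at 37 °C (buffer with 0.3% fatty-acid-free albumin), compound was added for 30 min at room temperature. Titration curves gave IC50.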
For orientation: Calcium flux is commonly read through the fluorescence of an indicator in the cells.

Take `C[C@@H](N)[C@H]1CC[C@H](C(=O)Nc2ccncc2)CC1` [Compound Y-27632]: in the assay with nerve-injured mice, the allodynia and hyperalgesia entry is reported as “completely abolished”.

Regarding `Cc1noc(-c2ccc(CSCCC(=O)O)cc2)c1NC(=O)OC(C)c1ccccc1Cl` (stereo not drawn) [Ki16425], the “chemotaxis of human foetal lung fibroblasts induced by BAL from IPF patients” value in assay [1] is given as “blocked”. Also, the “development of renal fibrosis in UUO mice” value with UUO mice is listed as “closely resembled the LPA1 (−/−) mice”. Moreover, the “LPA-induced increase in CTGF expression” value in assay [2] is recorded as “almost completely suppressed”. Besides, the “in vitro migration in response to LPA and ascites” value in assay [3] is recorded as “effectively blocked”. The “LPA-induced and ascites-induced invasion activity” value in assay [4] was “blocked”.

`Cc1noc(-c2ccc(-c3ccc(C4(C(=O)O)CC4)cc3)cc2)c1C(O)C(F)(F)CCc1ccccc1` (stereo not drawn) [Compound 1-178, 1-{4′-[4-(2,2-Difluoro-1-hydroxy-4-phenyl-butyl)-3-methyl-isoxazol-5-yl]-biphenyl-4-yl}-cyclopropanecarboxylic acid]: in assay [5], the concentration for half-maximal inhibition (IC50) is under 100 nM.

Take `Cc1noc(-c2ccc(-c3ccc(C4(C(=O)O)CC4)cc3)cc2)c1C(O)C(F)(F)CCc1ccccc1` (single isomer, unassigned) [Compound 1-255, 1-{4′-[4-(2,2-Difluoro-1-hydroxy-4-phenyl-butyl)-3-methyl-isoxazol-5-yl]-biphenyl-4-yl}-cyclopropanecarboxylic acid]: the IC50 at human LPA1 is under 300 nM; in assay [5], under 100 nM.

In the case of `Cc1noc(-c2ccc(-c3ccc(C4(C(=O)O)CC4)cc3)cc2)c1C(O)CCCc1ccccc1` (stereo not drawn) [Compound 1-116, 1-{4′-[4-(1-Hydroxy-4-phenyl-butyl)-3-methyl-isoxazol-5-yl]-biphenyl-4-yl}-cyclopropanecarboxylic acid], in assay [5], the IC50 is under 100 nM.

As to `Cc1noc(-c2ccc(-c3ccc(C4(C(=O)O)CC4)cc3)cc2)c1C(O)CCCc1ccccc1` (single isomer, unassigned) [Compound 1-155, 1-{4′-[4-(1-Hydroxy-4-phenyl-butyl)-3-methyl-isoxazol-5-yl]-biphenyl-4-yl}-cyclopropanecarboxylic acid], the IC50 is under 300 nM on human LPA1 and under 100 nM in assay [5].

For the compound `Cc1noc(-c2ccc(-c3ccc(C4(C(=O)O)CC4)cc3)cc2)c1C(O)CSC(C)(C)C` (stereo not drawn) [Compound 1-275, 1-{4′-[4-(2-tert-Butylsulfanyl-1-hydroxy-ethyl)-3-methyl-isoxazol-5-yl]-biphenyl-4-yl}-cyclopropanecarboxylic acid], on human LPA1, the IC50 was under 300 nM.

As to `Cc1noc(-c2ccc(-c3ccc(C4(CC(=O)O)CC4)cc3)cc2)c1C(O)CCCc1ccccc1` (single isomer, unassigned) [Compound 1-177, (1-{4′-[4-(1-Hydroxy-4-phenyl-butyl)-3-methyl-isoxazol-5-yl]-biphenyl-4-yl}-cyclopropyl)-acetic acid], the IC50 at human LPA1 is under 300 nM.

As for `Cc1noc(-c2ccc(-c3ccc(C(C)(C)C(=O)O)cc3)cc2)c1CSCCc1ccccc1` [Compound 1-133, 2-Methyl-2-[4′-(3-methyl-4-phenethylsulfanylmethyl-isoxazol-5-yl)-biphenyl-4-yl]-propionic acid], on human LPA1, the IC50 was under 300 nM.

For orientation: IC50 means the concentration that inhibits the measured activity by half.
